For assay [1], the system named is Cavia porcellus. Kind of assay: Antiasthmatic activity in Cavia porcellus Hartley (guinea pig) ovalbumin-induced hyperresponsive model assessed as reduction in eosinophil count in BAL at 20 mg/kg, ip qd administered for 7 days challenged 30 min post last dose on day 7. In kind it is functional, organism-based. The arrangement: dose 20 mg/kg.
Assay [2] deals with Bronchus smooth muscle. Nature of the assay: Inhibition of ovalbumin-induced constriction of Cavia porcellus (guinea pig) bronchial smooth muscle. In kind it is functional.
Assay [3] deals with Cavia porcellus. Nature of the assay: Antiasthmatic activity in Cavia porcellus Hartley (guinea pig) ovalbumin-induced hyperresponsive model assessed as increase in GSH level in per gram of lung tissue at 20 mg/kg, ip qd administered for 7 days challenged 30 min post last dose on day 7 (reference value: 15.175 +/- 1.809 umol/g). The settings on record: route intraperitoneal. Type of assay: functional.

In assay [4] the test system is Cavia porcellus. Nature of the assay: Antiasthmatic activity in Cavia porcellus Hartley (guinea pig) ovalbumin-induced hyperresponsive model assessed as cough latency at 10 mg/kg, ip qd administered for 7 days challenged 30 min post last dose on day 7 (reference value: 4.75 +/- 0.86 min). In kind it is functional. The settings on record: route intraperitoneal.
The test system of assay [5] is Cavia porcellus. Kind of assay: Antiasthmatic activity in Cavia porcellus Hartley (guinea pig) ovalbumin-induced hyperresponsive model assessed as reduction in total lymphocyte count in BAL at 20 mg/kg, ip qd administered for 7 days challenged 30 min post last dose on day 7. In kind it is functional, organism-based. Also on record: dose 20 mg/kg.
For assay [6], the system named is Cavia porcellus. Nature of the assay: Antiasthmatic activity in Cavia porcellus Hartley (guinea pig) ovalbumin-induced hyperresponsive model assessed as increase in GSH level in BAL at 20 mg/kg, ip qd administered for 7 days challenged 30 min post last dose on day 7 (reference value: 28.95 +/- 3.66 umol/ml). Type of assay: functional. Conditions: route intraperitoneal.

Assay [7] deals with Cavia porcellus. Nature of the assay: Antiasthmatic activity in Cavia porcellus Hartley (guinea pig) ovalbumin-induced hyperresponsive model assessed as cough latency at 20 mg/kg, ip qd administered for 7 days challenged 30 min post last dose on day 7 (reference value: 4.75 +/- 0.86 min). In kind it is functional. Conditions: route intraperitoneal.
For assay [8], the system named is Cavia porcellus. Nature of the assay: Antiasthmatic activity in Cavia porcellus Hartley (guinea pig) ovalbumin-induced hyperresponsive model assessed as reduction in TBARS level in BAL at 20 mg/kg, ip qd administered for 7 days challenged 30 min post last dose on day 7 (reference value: 0.471 +/- 0.08 nmol/ml). Type of assay: functional. Conditions: route intraperitoneal.

In assay [9] the test system is Cavia porcellus. Nature of the assay: Antiasthmatic activity in Cavia porcellus Hartley (guinea pig) ovalbumin-induced hyperresponsive model assessed as reduction in TBARS level in per gram of lung tissue at 20 mg/kg, ip qd administered for 7 days challenged 30 min post last dose on day 7 (reference value: 0.291 +/- 0.039 nmol/g). Type of assay: functional. Conditions: route intraperitoneal.

Assay [10] relates to Cavia porcellus. Nature of the assay: Antiasthmatic activity in Cavia porcellus Hartley (guinea pig) ovalbumin-induced hyperresponsive model assessed as decrease in nitrate/nitrite level in BAL at 20 mg/kg, ip qd administered for 7 days challenged 30 min post last dose on day 7 by griess assay (reference value: 70.16 +/- 6.20 umol/ml). Type of assay: functional. Conditions: route intraperitoneal. On the technique in general: Griess reagent forms a coloured azo dye with nitrite.

Assay [11] relates to Cavia porcellus. Nature of the assay: Antiasthmatic activity in Cavia porcellus Hartley (guinea pig) ovalbumin-induced hyperresponsive model assessed as decrease in nitrate/nitrite level in per gram of lung tissue at 20 mg/kg, ip qd administered for 7 days challenged 30 min post last dose on day 7 by griess assay (reference value: 195.55 +/- 8.34 umol/g). The settings on record: route intraperitoneal. In kind it is functional.

Assay [12] deals with Cavia porcellus. Nature of the assay: Antiasthmatic activity in Cavia porcellus Hartley (guinea pig) ovalbumin-induced hyperresponsive model assessed as reduction in total lymphocyte count in BAL at 50 mg/kg, ip qd administered for 7 days challenged 30 min post last dose on day 7. In kind it is functional, organism-based. Also on record: dose 50 mg/kg.
Assay [13] deals with Cavia porcellus. Nature of the assay: Antiasthmatic activity in Cavia porcellus Hartley (guinea pig) ovalbumin-induced hyperresponsive model assessed as increase in GSH level in per gram of lung tissue at 100 mg/kg, ip qd administered for 7 days challenged 30 min post last dose on day 7 (reference value: 15.175 +/- 1.809 umol/g). In kind it is functional. The settings on record: route intraperitoneal.

For assay [14], the system named is Cavia porcellus. Nature of the assay: Antiasthmatic activity in Cavia porcellus Hartley (guinea pig) ovalbumin-induced hyperresponsive model assessed as reduction in eosinophil count in BAL at 100 mg/kg, ip qd administered for 7 days challenged 30 min post last dose on day 7. The arrangement: dose 100 mg/kg. In kind it is functional, organism-based.
The test system of assay [15] is Cavia porcellus. Kind of assay: Antiasthmatic activity in Cavia porcellus Hartley (guinea pig) ovalbumin-induced hyperresponsive model assessed as decrease in nitrate/nitrite level in BAL at 100 mg/kg, ip qd administered for 7 days challenged 30 min post last dose on day 7 by griess assay (reference value: 70.16 +/- 6.20 umol/ml). Type of assay: functional. Conditions: route intraperitoneal.

Assay [16] relates to Cavia porcellus. Nature of the assay: Antiasthmatic activity in Cavia porcellus Hartley (guinea pig) ovalbumin-induced hyperresponsive model assessed as cough latency at 100 mg/kg, ip qd administered for 7 days challenged 30 min post last dose on day 7 (reference value: 4.75 +/- 0.86 min). Type of assay: functional. The settings on record: route intraperitoneal.
Assay [17] deals with Cavia porcellus. Nature of the assay: Antiasthmatic activity in Cavia porcellus Hartley (guinea pig) ovalbumin-induced hyperresponsive model assessed as cough latency at 50 mg/kg, ip qd administered for 7 days challenged 30 min post last dose on day 7 (reference value: 4.75 +/- 0.86 min). In kind it is functional. Conditions: route intraperitoneal.
Assay [18] relates to Cavia porcellus. Kind of assay: Antiasthmatic activity in Cavia porcellus Hartley (guinea pig) ovalbumin-induced hyperresponsive model assessed as decrease in nitrate/nitrite level in per gram of lung tissue at 100 mg/kg, ip qd administered for 7 days challenged 30 min post last dose on day 7 by griess assay (reference value: 195.55 +/- 8.34 umol/g). Type of assay: functional. Conditions: route intraperitoneal.

For assay [19], the system named is Cavia porcellus. Kind of assay: Antiasthmatic activity in Cavia porcellus Hartley (guinea pig) ovalbumin-induced hyperresponsive model assessed as reduction in TBARS level in per gram of lung tissue at 100 mg/kg, ip qd administered for 7 days challenged 30 min post last dose on day 7 (reference value: 0.291 +/- 0.039 nmol/g). In kind it is functional. The settings on record: route intraperitoneal.

Assay [20] relates to Cavia porcellus. Nature of the assay: Antiasthmatic activity in Cavia porcellus Hartley (guinea pig) ovalbumin-induced hyperresponsive model assessed as reduction in TBARS level in BAL at 100 mg/kg, ip qd administered for 7 days challenged 30 min post last dose on day 7 (reference value: 0.471 +/- 0.08 nmol/ml). In kind it is functional. Conditions: route intraperitoneal.
Assay [21] concerns Cavia porcellus. Nature of the assay: Antiasthmatic activity in Cavia porcellus Hartley (guinea pig) ovalbumin-induced hyperresponsive model assessed as reduction in eosinophil count in BAL at 50 mg/kg, ip qd administered for 7 days challenged 30 min post last dose on day 7. In kind it is functional, organism-based. The arrangement: dose 50 mg/kg.
Assay [22] has as its system Cavia porcellus. Kind of assay: Antiasthmatic activity in Cavia porcellus Hartley (guinea pig) ovalbumin-induced hyperresponsive model assessed as increase in GSH level in BAL at 100 mg/kg, ip qd administered for 7 days challenged 30 min post last dose on day 7 (reference value: 28.95 +/- 3.66 umol/ml). In kind it is functional. Conditions: route intraperitoneal.
The subject of assay [23] is Cavia porcellus. Kind of assay: Antiasthmatic activity in Cavia porcellus Hartley (guinea pig) ovalbumin-induced hyperresponsive model assessed as reduction in total lymphocyte count in BAL at 100 mg/kg, ip qd administered for 7 days challenged 30 min post last dose on day 7. Type of assay: functional, organism-based. Also on record: dose 100 mg/kg.

The source made the active and inactive calls. The rule behind the calls is not given here.

As to `O=c1c2ccccc2nc2n1CCCCC2`, the outcome in [1] and in assay [5] was Active. Moreover, the inhibition result in assay [2] is “Dose-dependent effect”. Also, the Activity in [3] is 66.67 µmol; in [6], 71.67 µmol/mL; in assay [8], 0.199 nmol/mL; in assay [9], 0.094 nmol; in assay [10], 48.945 µmol/mL; in [11], 81.777 µmol. Further, the Time in assay [4] was found to be 15.67 min; in assay [7], 22.32 min.

On to `Nc1c(Br)cc(Br)cc1CN[C@H]1CC[C@H](O)CC1` [AMBROXOL], for which the outcome in [12], in [14], in assay [21] and in [23] was Active. Moreover, the Activity turned out to be 50.28 µmol in [13]; 49.075 µmol/mL in assay [15]; 134.67 µmol in assay [18]; 0.146 nmol in assay [19]; 0.325 nmol/mL in [20]; 56.83 µmol/mL in [22]. For the same compound, the Time in [16] was determined as 13.17 min; in assay [17], 5.627 min.
